According to US20210317134A1, “UBIQUITIN-SPECIFIC-PROCESSING PROTEASE 7 (USP7) MODULATORS AND USES THEREOF” (RAPT THERAPEUTICS, INC., priority 2019, published 2021):

The compounds below were run against USP7 (Homo sapiens, UniProt Q93009) (assay: USP7 inhibitory potency (Table 1)).
Type: biochemical

Chain of USP7 (Q93009 whole entry): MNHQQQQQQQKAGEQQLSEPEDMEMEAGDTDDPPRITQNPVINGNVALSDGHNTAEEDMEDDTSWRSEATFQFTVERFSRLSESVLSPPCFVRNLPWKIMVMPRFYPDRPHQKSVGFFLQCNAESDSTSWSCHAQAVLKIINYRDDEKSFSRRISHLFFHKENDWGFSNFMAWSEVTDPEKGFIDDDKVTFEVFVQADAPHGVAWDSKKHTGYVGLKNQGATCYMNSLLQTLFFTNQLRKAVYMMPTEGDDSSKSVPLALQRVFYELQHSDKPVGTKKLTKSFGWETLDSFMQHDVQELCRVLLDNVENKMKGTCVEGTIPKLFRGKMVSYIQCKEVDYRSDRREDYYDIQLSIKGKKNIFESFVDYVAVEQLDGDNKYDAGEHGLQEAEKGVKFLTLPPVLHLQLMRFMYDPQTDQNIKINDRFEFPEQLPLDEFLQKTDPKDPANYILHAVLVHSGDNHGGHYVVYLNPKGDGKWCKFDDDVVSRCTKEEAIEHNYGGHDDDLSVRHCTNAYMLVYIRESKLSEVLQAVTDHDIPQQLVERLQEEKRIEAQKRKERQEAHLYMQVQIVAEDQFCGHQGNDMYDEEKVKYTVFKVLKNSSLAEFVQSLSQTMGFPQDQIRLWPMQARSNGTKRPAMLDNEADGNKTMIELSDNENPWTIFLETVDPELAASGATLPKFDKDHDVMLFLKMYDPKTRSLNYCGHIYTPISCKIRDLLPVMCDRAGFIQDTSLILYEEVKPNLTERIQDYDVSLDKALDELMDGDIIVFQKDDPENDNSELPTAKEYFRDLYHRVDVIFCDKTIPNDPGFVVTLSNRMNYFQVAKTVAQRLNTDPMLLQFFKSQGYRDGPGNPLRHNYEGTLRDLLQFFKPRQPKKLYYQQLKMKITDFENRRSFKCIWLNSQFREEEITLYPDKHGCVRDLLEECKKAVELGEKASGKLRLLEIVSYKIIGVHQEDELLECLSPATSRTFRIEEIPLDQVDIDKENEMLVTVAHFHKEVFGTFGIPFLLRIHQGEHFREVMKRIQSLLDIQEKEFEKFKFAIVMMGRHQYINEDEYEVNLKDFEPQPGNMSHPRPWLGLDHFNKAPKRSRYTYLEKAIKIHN

| SMILES | IC50 |
| --- | --- |
| O=C(C1Cc2cc(Cl)c(F)c(-c3ccnc4[nH]ccc34)c2O1)N1CCNCC1 (stereo not shown) | 10000 to 30000 nM |
| C[C@H](O)Cc1cc2c(-c3cc(Cl)cc4c3OC(C(=O)N3CCNCC3)C4)ccnc2[nH]1 (stereo partly shown) | 1000 to 10000 nM |
| Cc1cnccc1-c1cc(Cl)cc2c1OC(C(=O)N1CCNCC1)C2 (stereo not shown) | 10000 to 30000 nM |
| N#Cc1cc2c(c(-c3ccnc4cc(CO)sc34)c1)OC(C(=O)N1CCNCC1)C2 (stereo in doubt) [(R)-7-(2-(hydroxymethyl)thieno[3,2-b]pyridin-7-yl)-2-(piperazine-1-carbonyl)-2,3-dihydrobenzofuran-5-carbonitrile] | 1000 to 10000 nM |
| O=C(C1Cc2cc(Cl)cc(-c3ccnc4[nH]ccc34)c2O1)N1CCC(N2CCCCC2)CC1 (stereo not shown) [1,4′-bipiperidin-1′-yl(5-chloro-7-(1H-pyrrolo[2,3-b]pyridin-4-yl)-2,3-dihydrobenzofuran-2-yl)methanone] | 1000 to 10000 nM |
| CCC(O)c1cc2ncnc(-c3cc(Cl)cc4c3O[C@@H](c3c5c(nn3C)CCC(N(C)C)C5)C4)c2s1 (stereo partly drawn) [1-(4-((2R)-5-chloro-2-(5-(dimethylamino)-2-methyl-4,5,6,7-tetrahydro-2H-indazol-3-yl)-2,3-dihydrobenzofuran-7-yl)thieno[3,2-d]pyrimidin-6-yl)propan-1-ol] | 1000 to 10000 nM |
| CCC(O)c1cc2ncnc(-c3cc(Cl)cc4c3O[C@@H](c3c5c(nn3C)CCNC5)C4)c2s1 (stereo partly drawn) [1-(4-((R)-5-chloro-2-(2-methyl-4,5,6,7-tetrahydro-2H-pyrazolo[4,3-c]pyridin-3-yl)-2,3-dihydrobenzofuran-7-yl)thieno[3,2-d]pyrimidin-6-yl)propan-1-ol] | < 1000 nM |
| CCC(O)c1cc2ncnc(-c3cc(Cl)cc4c3O[C@@H](c3onc5c3CNCC5)C4)c2o1 (stereo partly drawn) [1-(4-((R)-5-chloro-2-(4,5,6,7-tetrahydroisoxazolo[4,3-c]pyridin-3-yl)-2,3-dihydrobenzofuran-7-yl)furo[3,2-d]pyrimidin-6-yl)propan-1-ol] | 1000 to 10000 nM |
| CC(O)c1ccc2c(-c3cc(Cl)cc4c3O[C@@H](c3onc5c3CNCC5)C4)ccnc2c1 (stereo partly drawn) [1-(4-((R)-5-chloro-2-(4,5,6,7-tetrahydroisoxazolo[4,3-c]pyridin-3-yl)-2,3-dihydrobenzofuran-7-yl)quinolin-7-yl)ethan-1-ol] | < 1000 nM |
| CCC(O)c1ccc2c(-c3cc(Cl)cc4c3O[C@@H](c3onc5c3CNCC5)C4)ccnc2c1 (stereo partly drawn) [1-(4-((R)-5-chloro-2-(4,5,6,7-tetrahydroisoxazolo[4,3-c]pyridin-3-yl)-2,3-dihydrobenzofuran-7-yl)quinolin-7-yl)propan-1-ol] | 1000 to 10000 nM |
| CCC(O)c1cc2ncnc(-c3cc(Cl)cc4c3O[C@@H](c3ocnc3CNCC(F)(F)F)C4)c2s1 (stereo partly drawn) [1-(4-((R)-5-chloro-2-(4-(((2,2,2-trifluoroethyl)amino)methyl)oxazol-5-yl)-2,3-dihydrobenzofuran-7-yl)thieno[3,2-d]pyrimidin-6-yl)propan-1-ol] | 10000 to 30000 nM |
| CCC(O)c1cc2nccc(-c3cc(Cl)cc4c3OC(c3onc5c3CNCC5)C4)n2n1 (stereo not shown) [1-(7-(5-chloro-2-(4,5,6,7-tetrahydroisoxazolo[4,3-c]pyridin-3-yl)-2,3-dihydrobenzofuran-7-yl)pyrazolo[1,5-a]pyrimidin-2-yl)propan-1-ol] | 1000 to 10000 nM |
| CCC(O)c1cc2nccc(-c3cc(Cl)cc4c3OC(c3onc5c3CN(C(C)C)CC5)C4)c2s1 (stereo not shown) [1-(7-(5-chloro-2-(5-isopropyl-4,5,6,7-tetrahydroisoxazolo[4,3-c]pyridin-3-yl)-2,3-dihydrobenzofuran-7-yl)thieno[3,2-b]pyridin-2-yl)propan-1-ol] | < 1000 nM |
| CCC(O)c1cc2nccc(-c3cc(Cl)cc4c3OC(CN3CCNCC3)C4)c2s1 (stereo not shown) [1-(7-(5-chloro-2-(piperazin-1-ylmethyl)-2,3-dihydrobenzofuran-7-yl)thieno[3,2-b]pyridin-2-yl)propan-1-ol] | 10000 to 30000 nM |
| CCC(O)c1cc2nccc(-c3cc(Cl)cc4c3O[C@@H](c3nn(C)c5c3CNCC5)C4)c2s1 (stereo partly drawn) [1-(7-((R)-5-chloro-2-(1-methyl-4,5,6,7-tetrahydro-1H-pyrazolo[4,3-c]pyridin-3-yl)-2,3-dihydrobenzofuran-7-yl)thieno[3,2-b]pyridin-2-yl)propan-1-ol] | < 1000 nM |
| CCC(O)c1cc2nccc(-c3cc(Cl)cc4c3O[C@@H](c3c5c(nn3C)CCNC5)C4)c2s1 (stereo partly drawn) [1-(7-((R)-5-chloro-2-(2-methyl-4,5,6,7-tetrahydro-2H-pyrazolo[4,3-c]pyridin-3-yl)-2,3-dihydrobenzofuran-7-yl)thieno[3,2-b]pyridin-2-yl)propan-1-ol] | < 1000 nM |
| CCC(O)c1cc2nccc(-c3cc(Cl)cc4c3O[C@@H](c3[nH]nc5c3CNCC5)C4)c2s1 (stereo partly drawn) [1-(7-((R)-5-chloro-2-(4,5,6,7-tetrahydro-2H-pyrazolo[4,3-c]pyridin-3-yl)-2,3-dihydrobenzofuran-7-yl)thieno[3,2-b]pyridin-2-yl)propan-1-ol] | < 1000 nM |

| SMILES | IC50 |
| --- | --- |
| CC(C)CC(O)c1cc2nccc(-c3cc(Cl)cc4c3O[C@@H](c3onc5c3CNCC5)C4)c2s1 (stereo partly drawn) [1-(7-((R)-5-chloro-2-(4,5,6,7-tetrahydroisoxazolo[4,3-c]pyridin-3-yl)-2,3-dihydrobenzofuran-7-yl)thieno[3,2-b]pyridin-2-yl)-3-methylbutan-1-ol] | < 1000 nM |
| CCCC(O)c1cc2nccc(-c3cc(Cl)cc4c3O[C@@H](c3onc5c3CNCC5)C4)c2s1 (stereo partly drawn) [1-(7-((R)-5-chloro-2-(4,5,6,7-tetrahydroisoxazolo[4,3-c]pyridin-3-yl)-2,3-dihydrobenzofuran-7-yl)thieno[3,2-b]pyridin-2-yl)butan-1-ol] | < 1000 nM |
| CCC(N)c1cc2nccc(-c3cc(Cl)cc4c3O[C@@H](c3onc5c3CNCC5)C4)c2s1 (stereo partly drawn) [1-(7-((R)-5-chloro-2-(4,5,6,7-tetrahydroisoxazolo[4,3-c]pyridin-3-yl)-2,3-dihydrobenzofuran-7-yl)thieno[3,2-b]pyridin-2-yl)propan-1-amine] | 1000 to 10000 nM |
| CCC(O)c1cc2nccc(-c3cc(Cl)cc4c3O[C@@H](c3ocnc3CNCCO)C4)c2s1 (stereo partly drawn) [1-(7-((R)-5-chloro-2-(4-(((2-hydroxyethyl)amino)methyl)oxazol-5-yl)-2,3-dihydrobenzofuran-7-yl)thieno[3,2-b]pyridin-2-yl)propan-1-ol] | < 1000 nM |
| CCC(O)c1cc2nccc(-c3cc(Cl)cc4c3O[C@@H](c3ocnc3CN(C)C)C4)c2s1 (stereo partly drawn) [1-(7-((R)-5-chloro-2-(4-((dimethylamino)methyl)oxazol-5-yl)-2,3-dihydrobenzofuran-7-yl)thieno[3,2-b]pyridin-2-yl)propan-1-ol] | < 1000 nM |
| CCC(O)c1cc2nccc(-c3cc(Cl)cc4c3O[C@@H](c3ocnc3CNC)C4)c2s1 (stereo partly drawn) [1-(7-((R)-5-chloro-2-(4-((methylamino)methyl)oxazol-5-yl)-2,3-dihydrobenzofuran-7-yl)thieno[3,2-b]pyridin-2-yl)propan-1-ol] | < 1000 nM |
| CCC(O)c1cc2nccc(-c3cc(Cl)cc4c3O[C@@H](c3ocnc3CN3CCOCC3)C4)c2s1 (stereo partly drawn) [1-(7-((R)-5-chloro-2-(4-(morpholinomethyl)oxazol-5-yl)-2,3-dihydrobenzofuran-7-yl)thieno[3,2-b]pyridin-2-yl)propan-1-ol] | 1000 to 10000 nM |
| CCC(O)c1cc2nccc(-c3cc(Cl)cc4c3O[C@@H](c3ocnc3CN3CCNCC3)C4)c2s1 (stereo partly drawn) [1-(7-((R)-5-chloro-2-(4-(piperazin-1-ylmethyl)oxazol-5-yl)-2,3-dihydrobenzofuran-7-yl)thieno[3,2-b]pyridin-2-yl)propan-1-ol] | < 1000 nM |
| CCC(O)c1cc2nccc(-c3cc(Cl)cc4c3O[C@@H](c3ocnc3CN3CCCC3)C4)c2s1 (stereo partly drawn) [1-(7-((R)-5-chloro-2-(4-(pyrrolidin-1-ylmethyl)oxazol-5-yl)-2,3-dihydrobenzofuran-7-yl)thieno[3,2-b]pyridin-2-yl)propan-1-ol] | < 1000 nM |
| CCC(O)c1cc2nccc(-c3cc(Cl)cc4c3O[C@@H](c3onc5c3CN(CC)CC5)C4)c2s1 (stereo partly drawn) [1-(7-((R)-5-chloro-2-(5-ethyl-4,5,6,7-tetrahydroisoxazolo[4,3-c]pyridin-3-yl)-2,3-dihydrobenzofuran-7-yl)thieno[3,2-b]pyridin-2-yl)propan-1-ol] | < 1000 nM |
| CCC(O)c1cc2nccc(-c3cc(Cl)cc4c3O[C@@H](c3onc5c3CNCC5)CC4)c2s1 (stereo partly drawn) [1-(7-((R)-6-chloro-2-(4,5,6,7-tetrahydroisoxazolo[4,3-c]pyridin-3-yl)chroman-8-yl)thieno[3,2-b]pyridin-2-yl)propan-1-ol] | < 1000 nM |
| O=C([C@H]1Cc2cc(Cl)cc(-c3ccnc4c3CC(CN3C(=O)CCC3=O)C4)c2O1)N1CCNCC1 (stereo partly drawn) [1-((4-((R)-5-chloro-2-(piperazine-1-carbonyl)-2,3-dihydrobenzofuran-7-yl)-6,7-dihydro-5H-cyclopenta[b]pyridin-6-yl)methyl)pyrrolidine-2,5-dione] | < 1000 nM |
| O=C1CCC(=O)N1Cc1cc2nccc(-c3cc(Cl)cc4c3O[C@@H](c3onc5c3CC(N3CCC3)CC5)C4)c2s1 (stereo partly drawn) [1-((7-((2R)-2-(5-(azetidin-1-yl)-4,5,6,7-tetrahydrobenzo[c]isoxazol-3-yl)-5-chloro-2,3-dihydrobenzofuran-7-yl)thieno[3,2-b]pyridin-2-yl)methyl)pyrrolidine-2,5-dione] | < 1000 nM |
| CC1CC(=O)N(Cc2cc3nccc(-c4cc(Cl)cc5c4O[C@@H](C(=O)N4CCNCC4)C5)c3s2)C1=O (stereo partly drawn) [1-((7-((R)-5-chloro-2-(piperazine-1-carbonyl)-2,3-dihydrobenzofuran-7-yl)thieno[3,2-b]pyridin-2-yl)methyl)-3-methylpyrrolidine-2,5-dione] | < 1000 nM |
| CC1CC(=O)N(Cc2cc3nccc(-c4cc(Cl)cc5c4O[C@@H](C(=O)N4CCNCC4)C5)c3s2)C1 (stereo partly drawn) [1-((7-((R)-5-chloro-2-(piperazine-1-carbonyl)-2,3-dihydrobenzofuran-7-yl)thieno[3,2-b]pyridin-2-yl)methyl)-4-methylpyrrolidin-2-one] | < 1000 nM |
| CC1CCC(=O)N1Cc1cc2nccc(-c3cc(Cl)cc4c3O[C@@H](C(=O)N3CCNCC3)C4)c2s1 (stereo partly drawn) [1-((7-((R)-5-chloro-2-(piperazine-1-carbonyl)-2,3-dihydrobenzofuran-7-yl)thieno[3,2-b]pyridin-2-yl)methyl)-5-methylpyrrolidin-2-one] | < 1000 nM |
| C[C@H](c1cc2nccc(-c3cc(Cl)cc4c3O[C@@H](C(=O)N3CCNCC3)C4)c2s1)N1C(=O)CCC1=O [1-((R)-1-(7-((R)-5-chloro-2-(piperazine-1-carbonyl)-2,3-dihydrobenzofuran-7-yl)thieno[3,2-b]pyridin-2-yl)ethyl)pyrrolidine-2,5-dione] | < 1000 nM |
